# Measurements from US8618151B2, “Inhibitors of HCV NS5A” (Presidio Pharmaceuticals, Inc., priority 2008, dated 2013).
# System: HCV genotype 1b replicon
# Experiment: HCV replicon assay (1b_Huh-Luc/Neo-ET cell line, luciferase readout)
# Assay type: cell-based
# Details: Hepatitis C virus, Huh-7, 72 h, read-out: Inhibition of HCV genotype 1b
# How it was run: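 1b_Huh-Luc/Neo-ET Huh 7 cells carrying a bicistronic genotype 1b replicon; compounds added in triplicate the day after plating, 72 h incubation, then Bright-Glo luciferase read-out. Signal expressed as % of control; EC50 from curve fit, repeated several times.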
row,Structure (SMILES),EC50 [nM]
1,COC(=O)N[C@H](C(=O)N1CCC[C@H]1c1ncc(-c2ccc3cc(-c4ccc5nc([C@@H]6CCCN6C(=O)[C@@H](NC(=O)OC)C(C)C)[nH]c5n4)ccc3c2)[nH]1)C(C)C [compound 198],< 1
2,COC(=O)N[C@H](C(=O)N1CCC[C@H]1c1nc(-c2ccc3nc(C45CCC(c6cnc([C@@H]7CCCN7C(=O)[C@@H](NC(=O)OC)C(C)C)[nH]6)(CC4)CC5)ccc3c2)c[nH]1)C(C)C [compound 262],< 1
3,COC(=O)N[C@H](C(=O)N1CCC[C@H]1c1ncc(-c2ccc3nc(-c4ccc(-c5cnc([C@@H]6CCCN6C(=O)[C@H](NC(=O)OC)c6ccccc6)[nH]5)cc4F)ccc3c2)[nH]1)C1CCOCC1 [compound 134],< 1
4,COC(=O)N[C@H](C(=O)N1CCC[C@H]1c1nc(-c2cnc3cc(-c4ccc(-c5cnc([C@@H]6CCCN6C(=O)[C@@H](NC(=O)OC)C(C)C)[nH]5)cc4)ccc3c2)c[nH]1)C(C)C [compound 19],< 1
5,COC(=O)N[C@H](C(=O)N1CCC[C@H]1c1nc2ccc(-c3ccc4cc(-c5cnc([C@@H]6CCCN6C(=O)[C@H](NC(=O)OC)c6ccccc6)[nH]5)ccc4c3)cc2[nH]1)C1CCOCC1 [compound 212],< 1
6,COC(=O)N[C@H](C(=O)N1CCC[C@H]1c1ncc(-c2ccc3cc(-c4ccc5nc([C@@H]6CCCN6C(=O)[C@@H](c6ccccc6)N6CCOCC6)[nH]c5c4)ccc3c2)[nH]1)C(C)C [compound 213],< 1
7,COC(=O)N[C@H](C(=O)N1CCC[C@H]1c1nc(-c2cnc3cc(-c4ccc(-c5cnc([C@@H]6CCCN6C(=O)[C@@H](NC(=O)OC)C6CCOCC6)[nH]5)cn4)ccc3c2)c[nH]1)C1CCOCC1 [compound 75],< 1
8,COC(=O)N[C@H](C(=O)N1CCC[C@H]1c1ncc(-c2ccc(-c3ccc4cc(-c5c[nH]c([C@@H]6CCCN6C(=O)[C@H](NC(=O)OC6CCOCC6)c6ccccc6)n5)cnc4c3)nc2)[nH]1)C(C)C [compound 81],< 1
9,COC(=O)N[C@H](C(=O)N1CCC[C@H]1c1ncc(-c2ccc3cc(-c4ccc(-c5cnc([C@@H]6COCCN6C(=O)[C@@H](NC(=O)OC)C(C)C)[nH]5)cc4)ccc3c2)[nH]1)C(C)C [compound 139],< 1
10,COC(=O)N[C@H](C(=O)N1CCC[C@H]1c1nc(-c2ccc3nc(N4CCC(c5cnc([C@@H]6CCCN6C(=O)[C@@H](NC(=O)OC)C6CC6)[nH]5)CC4)ccc3c2)c[nH]1)C1CC1 [compound 274],1 to 9.9
11,COC(=O)N[C@@H](C(=O)N1CCC[C@H]1c1nc(-c2ccc3c(c2)CCN(c2ccc(-c4cnc([C@@H]5CCCN5C(=O)[C@H](NC(=O)OC)c5ccccc5)[nH]4)cc2)C3=O)c[nH]1)c1ccccc1 [compound 289],< 1
12,COC(=O)N[C@H](C(=O)N1CCC[C@H]1c1ncc(-c2cccc(-c3cccc4cc(-c5cnc([C@@H]6CCCN6C(=O)[C@@H](NC(=O)OC)C(C)C)[nH]5)ccc34)c2)[nH]1)C(C)C [compound 130],< 1
13,COC(=O)N[C@H](C(=O)N1CCC[C@H]1c1nc(-c2ccc3c(c2)CCN(c2c(F)cc(-c4cnc([C@@H]5CCCN5C(=O)[C@@H](NC(=O)OC)C5CC5)[nH]4)cc2F)C3)c[nH]1)C1CC1 [compound 271],< 1
14,COC(=O)N[C@@H](C(=O)N1CCC[C@H]1c1nc(-c2ccc3nc(C45CCC(c6cnc([C@@H]7CCCN7C(=O)[C@H](NC(=O)OC)c7ccccc7)[nH]6)(CC4)CC5)ccc3c2)c[nH]1)c1ccccc1 [compound 263],< 1
15,COC(=O)N[C@H](C(=O)N1CCC[C@H]1c1ncc(-c2ccc(-c3ccc4cc(-c5cnc([C@@H]6CCCN6C(=O)[C@@H](NC(=O)OC)C6CCOCC6)[nH]5)ccc4n3)cc2F)[nH]1)C(C)C [compound 123],< 1
16,COC(=O)N[C@H](C(=O)N1CCC[C@H]1c1ncc(-c2ccc(-c3nc4ccc(-c5cnc([C@@H]6CCCN6C(=O)[C@H](NC(=O)OC(C)(C)C)c6ccccc6)[nH]5)cc4s3)cc2)[nH]1)C(C)C [compound 242],< 1
17,COC(=O)N[C@H](C(=O)N1CCC[C@H]1c1ncc(-c2ccc(-c3ccc4cc(-c5cnc([C@@H]6CCCN6C(=O)[C@@H](NC(=O)OC)C6CCOCC6)[nH]5)ccc4c3)cc2)[nH]1)C1CCOCC1 [compound 133],< 1
18,CNC(=O)N[C@@H](C(=O)N1CCC[C@H]1c1nc(-c2ccc3cc(-c4ccc(-c5cnc([C@@H]6CCCN6C(=O)[C@@H](NC(=O)OC)C(C)C)[nH]5)cc4)ccc3c2)c[nH]1)c1ccccc1 [14s],< 1
19,COC(=O)N[C@H](C(=O)N1CCC[C@H]1c1ncc(-c2ccc3cc(-c4ccc5nc([C@@H]6CCCN6C(=O)[C@@H](NC(=O)OC)C6CCOCC6)[nH]c5n4)ccc3c2)[nH]1)C1CCOCC1 [compound 205],< 1
20,COC(=O)N[C@H](C(=O)N1CCC[C@H]1c1nc2ccc(-c3ccc4nc(-c5cnc([C@@H]6CCCN6C(=O)[C@H](NC(=O)OC)c6ccccc6)[nH]5)ccc4c3)cc2[nH]1)C(C)C [compound 210],< 1
21,CN(C)[C@@H](C(=O)N1CCC[C@H]1c1nc(-c2ccc3nc(C45CCC(c6cnc([C@@H]7CCCN7C(=O)[C@@H](c7ccccc7)N(C)C)[nH]6)(CC4)CC5)ccc3c2)c[nH]1)c1ccccc1 [compound 264],1 to 9.9

row,Structure (SMILES),EC50 [nM]
1,CNC(=O)N[C@@H](C(=O)N1CCC[C@H]1c1ncc(-c2ccc3nc(-c4ccc(-c5cnc([C@@H]6CCCN6C(=O)[C@@H](NC(=O)OC)C(C)C)[nH]5)cc4)sc3c2)[nH]1)c1ccccc1 [compound 245],< 1
2,COC(=O)N[C@H](C(=O)N1CCC[C@H]1c1ncc(-c2ccc(-c3ccc4cc(-c5c[nH]c([C@@H]6CCCN6C(=O)[C@@H](NC(=O)OC)[C@@H](C)OC)n5)ccc4n3)cc2)[nH]1)C(C)C [compound 40],< 1
3,COC(=O)N[C@H](C(=O)N1CCOC[C@H]1c1ncc(-c2ccc(-c3ccc4cc(-c5cnc([C@@H]6CCCN6C(=O)[C@H](NC(=O)OC)c6ccccc6)[nH]5)ccc4c3)cc2)[nH]1)C(C)C [compound 137],< 1
4,COC(=O)N[C@H](C(=O)N1CCC[C@H]1c1nc(-c2ccc3cc(-c4ccc(-c5cnc([C@@H]6CCCN6C(=O)[C@@H](NC(=O)OC6CCOCC6)c6ccccc6)[nH]5)cc4)ccc3c2)c[nH]1)C1CCOCC1 [compound 112],< 1
5,COC(=O)N[C@H](C(=O)N1CCC[C@H]1c1ncc(-c2ccc3cc(-c4ccc(-c5cnc([C@@H]6CCCN6C(=O)[C@H](NC(=O)OC)c6ccccc6)[nH]5)c(F)c4)ncc3c2)[nH]1)C(C)C [compound 155],< 1
6,COC(=O)N[C@H](C(=O)N1CCC[C@H]1c1nc(-c2ccc3cc(-c4ccc(-c5cnc([C@@H]6CCCN6C(=O)[C@@H](NC(=O)OC)C(C)C)[nH]5)cc4)ccc3c2)c[nH]1)C(C)C [compound 1],< 1
7,COC(=O)N[C@H](C(=O)N1CCC[C@H]1c1ncc(-c2ccc(-c3ccc4cc(-c5c[nH]c([C@@H]6CCCN6C(=O)[C@@H](NC(=O)OC)C6CCOCC6)n5)ccc4c3)c(C)c2)[nH]1)C(C)C [compound 104],< 1
8,COC(=O)N[C@H](C(=O)N1CCC[C@H]1c1ncc(-c2ccc(-c3nc4ccc(-c5cnc([C@@H]6CCCN6C(=O)[C@H](NC(=O)OC)c6ccccc6)[nH]5)cc4o3)cc2)[nH]1)C(C)C [compound 249],< 1
9,COC(=O)N[C@H](C(=O)N1CCC[C@H]1c1ncc(-c2cnc3cc(-c4ccc5nc([C@@H]6CCCN6C(=O)[C@H](NC(=O)OC)c6ccccc6)[nH]c5c4)ccc3c2)[nH]1)C(C)C [compound 188],1 to 9.9
10,COC(=O)N[C@H](C(=O)N1CCC[C@H]1c1nc(-c2ccc3cc(-c4ccc(-c5cnc([C@@H]6CCCN6C(=O)[C@@H](NC(=O)OC)C6CCOCC6)[nH]5)cc4C)ccc3c2)c[nH]1)C(C)C [compound 86],< 1
11,COC(=O)N[C@H](C(=O)N1CCC[C@H]1c1ncc(-c2ccc3cc(-c4ccc(-c5cnc([C@@H]6CCCN6C(=O)[C@H](NC(=O)OC)c6ccccc6)[nH]5)cc4)ccc3c2)[nH]1)[C@@H](C)OC [compound 115],< 1
12,CNC(=O)N[C@@H](C(=O)N1CCC[C@H]1c1ncc(-c2ccc(-c3ccc4cc(-c5c[nH]c([C@@H]6CCCN6C(=O)[C@@H](NC(=O)OC)C(C)C)n5)ccc4c3)cc2)[nH]1)c1ccccc1 [Compound 18],< 1
13,COC(=O)N[C@H](C(=O)N1CCC[C@H]1c1nc(-c2ccc3cc(-c4ccc(-c5cnc([C@@H]6CCCN6C(=O)[C@@H](NC(=O)OC)C6CCOCC6)[nH]5)cn4)ccc3c2)c[nH]1)C(C)C [compound 51],< 1
14,COC(=O)N[C@@H](C)C(=O)N1CCC[C@H]1c1nc(-c2ccc3nc(-c4ccc(-c5cnc([C@@H]6CCCN6C(=O)[C@@H](NC(=O)OC)C(C)C)[nH]5)cc4)ccc3c2)c[nH]1 [compound 41],< 1
15,COC(=O)N[C@H](C(=O)N1CCC[C@H]1c1ncc(-c2ccc3cc(-c4ccc(-c5cnc([C@@H]6CCCN6C(=O)[C@H](NC(=O)OC6CCOCC6)c6ccccc6)[nH]5)c(F)c4)ncc3c2)[nH]1)C1CCOCC1 [compound 154],< 1
16,COC(=O)N[C@@H](C(=O)N1CCC[C@H]1c1nc(-c2ccc3nc(C4CCC(c5cnc([C@@H]6CCCN6C(=O)[C@H](NC(=O)OC)c6ccccc6)[nH]5)CC4)ccc3c2)c[nH]1)c1ccccc1 (some centres unmarked) [compound 286],< 1
17,COC(=O)N[C@H](C(=O)N1CCC[C@H]1c1nc(-c2ccc3cc(-c4ccc(-c5cnc([C@@H]6CCCN6C(=O)[C@H](NC(=O)NC6CC6)c6ccccc6)[nH]5)cc4)ccc3c2)c[nH]1)C(C)C [compound 24],< 1
18,COC(=O)N[C@H](C(=O)N1CCC[C@H]1c1ncc(-c2ccc3nc(-c4ccc(-c5cnc([C@@H]6CCCN6C(=O)[C@@H](NC(=O)OC)C(C)C)[nH]5)c(F)c4)ccc3c2)[nH]1)C(C)C [compound 126],< 1
19,COC(=O)N[C@H](C(=O)N1CCC[C@H]1c1nc2ccc(-c3ccc4cc(-c5cnc([C@@H]6CCCN6C(=O)[C@@H](NC(=O)OC)C6CCOCC6)[nH]5)ccc4c3)cc2[nH]1)C(C)C [compound 190],< 1
20,COC(=O)N[C@H](C(=O)N1CCC[C@H]1c1ncc(-c2ccc(-c3nc4cc(-c5cnc([C@@H]6CCCN6C(=O)[C@@H](NC(=O)OC)C(C)C)[nH]5)ccc4s3)cc2)[nH]1)C(C)C [compound 240],< 1
